Test results as given in patent publication US7407775B2, “Method for identifying Listeria monocytogenes and culture medium” (Biomerieux S.A., priority 2000, dated 2008).

Assays:
Assay type in all cases: cell-based
[1] = system: Listeria monocytogenes ATCC 19117; experiment: Experiment 2: octanoate esterase substrates with different Indoxyl-based chromogenic markers; parameters: key to I (intensity of the color): —: the symbol “-” corresponds to the absence of color or intensity; 0 corresponds to no activity; 0.1 corresponds to a trace of color; 0.5 corresponds to very pale coloration; 1 corresponds to clear but low-intensity coloration; 1.5 corresponds to a degree of coloration intermediate between scores 1 and 2; 2 corresponds to clear coloration of moderate intensity; 2.5 corresponds to a degree of coloration intermediate between scores 2 and 3; 3 corresponds to intense coloration; 3.5 corresponds to a degree of coloration intermediate between scores 3 and 4; 4 corresponds to very intense coloration; conditions: 37° C., substrate 250 mg/l
Description: (§1) In Table 1 above, as in the following Tables, C represents the color of the colonies after incubation, I represents the intensity of the color, and the symbol “-” corresponds to the absence of color or intensity; finally, IT defines the incubation time. It should be noted that the intensity of the color is scored on an arbitrary scale but one which is consistent for all the biological specimens and media tested. This scale is valid for this experiment as well as all those that follow. It can be defined in the following way: • 0 corresponds to no activity, • 0.1 corresponds to a trace of color, • 0.5 corresponds to very pale coloration, • 1 corresponds to clear but low-intensity coloration, • 1.5 corresponds to a degree of coloration intermediate between scores 1 and 2, • 2 corresponds to clear coloration of moderate intensity, • 2.5 corresponds to a degree of coloration intermediate between scores 2 and 3, • 3 corresponds to intense coloration, • 3.5 corresponds to a degree of coloration intermediate between scores 3 and 4, • 4 corresponds to very intense coloration.
(§2) A stock solution of each substrate at a concentration of 40 g/l was made up in a mixture of 40% Dimethylsulfoxide and 60% Tween 20. An appropriate volume was added to four Columbia-type media while cooling to give a final substrate concentration of 250 mg/l. These dishes were divided into three areas and then each area was inoculated with a suspension (density=0.5 McFarland) of microorganisms taken from either the Applicant's own collection or the ATCC. The dishes were incubated for 48 hours at 37° C. The colonies which grew were examined by eye after 24 and 48 hours of incubation. Both the color and the intensity of the color of the colonies were recorded.

[2] = system: Listeria monocytogenes 092; experiment: as above; parameters: key to I (intensity of the color): —: the symbol “-” corresponds to the absence of color or intensity; 0 corresponds to no activity; 0.1 corresponds to a trace of color; 0.5 corresponds to very pale coloration; 1 corresponds to clear but low-intensity coloration; 1.5 corresponds to a degree of coloration intermediate between scores 1 and 2; 2 corresponds to clear coloration of moderate intensity; 2.5 corresponds to a degree of coloration intermediate between scores 2 and 3; 3 corresponds to intense coloration; 3.5 corresponds to a degree of coloration intermediate between scores 3 and 4; 4 corresponds to very intense coloration; conditions: 37° C., substrate 250 mg/l
Description: as §1, §2

Listeria species = experiment: Experiment 3: differentiation of Listeria species in liquid medium
Description: as §1
These substrates were lyophilized in the wells of API-type strips (Registered Trademark). Before use, the substrates contained in the wells were resuspended in an agar-free Columbia-type inoculation medium. […]
The intensity of the color of the colonies was recorded.

SMILES	C (color of the colonies) ([1]; IT 24 h)	I (intensity of the color) ([1]; IT 24 h)	C (color of the colonies) ([1]; IT 48 h)	I (intensity of the color) ([1]; IT 48 h)	C (color of the colonies) ([2]; IT 24 h)	I (intensity of the color) ([2]; IT 24 h)	C (color of the colonies) ([2]; IT 48 h)	I (intensity of the color) ([2]; IT 48 h)	differentiation between L. monocytogenes and other species belonging to the same genus (Listeria species)
CCCCCCCC(=O)Oc1c[nH]c2ccc(Br)cc12 [Blue-C8, 5-Bromo-3-indolyl octanoate]	gray	1	gray	2	gray	1.5	gray	2.5	–
CCCCCCCC(=O)Oc1c[nH]c2cc(Cl)c(Br)cc12 [Magenta-C8, 5-Bromo-6-chloro-3-indolyl octanoate]	purple	1.5	purple	3.5	purple	3	purple	3	–
CCCCCCCC(=O)Oc1c[nH]c2cc(Cl)ccc12 [Pink-C8, 6-Chloro-3-indolyl octanoate]	pink	0.5	pink	1	pink	1.5	pink	2	–
CCCCCCCC(=O)Oc1c[nH]c2ccc(Br)c(Cl)c12 [X-C8, 5-Bromo-4-chloro-3-indolyl octanoate]	turquoise	2	turquoise	3	turquoise	3	turquoise	3.5	gave a contrast in color
